In article PMC7307906, “Macrocyclic Modalities Combining Peptide Epitopes and Natural Product Fragments” (Journal of the American Chemical Society, 2020):

Experiments:
human MC3R [1] = target: T1, human MC3R (Homo sapiens, UniProt P41968); assay: Melanocortin receptor radioligand binding (SPA, [125I]-NDP-α-MSH displacement), MC3R; conditions: competitive binding, mean (± SEM) of at least three independent experiments, read-out: IC50 hMC3R binding
T1 construct: expressed in transfected cells

human MC5R = target: T2, human MC5R (Homo sapiens, UniProt P33032); assay: Melanocortin receptor radioligand binding (SPA, [125I]-NDP-α-MSH displacement), MC5R; conditions: for IC50: competitive binding, [125I]-NDP-α-MSH, mean (± SEM) of at least three independent experiments, read-out: IC50 hMC5R binding
T2 construct: expressed in transfected cells; host or cells: HEK293-6E suspension cells, transient expression; membranes

human MC1R [2] = target: T3, human MC1R (Homo sapiens, UniProt Q01726); assay: cAMP assay (LANCE) in T-Rex-293 cells expressing MC1R; type: cell-based; conditions: for Emax: T-REx-293, read-out: % Effect hMC1R cAMP; for EC50: cAMP assay, mean (± SEM) of at least three independent experiments, read-out: EC50 hMC1R cAMP
T3 construct: expressed in transfected cells

human MC3R [3] = target: T1, human MC3R; assay: cAMP assay (LANCE) in T-Rex-293 cells expressing MC3R; type: cell-based; conditions: cAMP assay; mean (± SEM) of at least three independent experiments; read-out: EC50 hMC3R cAMP
human MC4R [4] = target: T4, human MC4R (Homo sapiens, UniProt P32245); assay: Melanocortin receptor radioligand binding (SPA, [125I]-NDP-α-MSH displacement), MC4R; conditions: competitive binding, mean (± SEM) of at least three independent experiments, read-out: IC50 hMC4R binding
T4 construct: expressed in transfected cells

human MC1R [5] = target: T3, human MC1R; assay: Melanocortin receptor radioligand binding (SPA, [125I]-NDP-α-MSH displacement), MC1R; conditions: competitive binding, mean (± SEM) of at least three independent experiments, read-out: IC50 hMC1R binding
human MC4R [6] = target: T4, human MC4R; assay: cAMP assay (LANCE) in T-Rex-293 cells expressing MC4R; type: cell-based; conditions: cAMP assay; mean (± SEM) of at least three independent experiments; read-out: EC50 hMC4R cAMP

T2 sequence (P33032 whole entry): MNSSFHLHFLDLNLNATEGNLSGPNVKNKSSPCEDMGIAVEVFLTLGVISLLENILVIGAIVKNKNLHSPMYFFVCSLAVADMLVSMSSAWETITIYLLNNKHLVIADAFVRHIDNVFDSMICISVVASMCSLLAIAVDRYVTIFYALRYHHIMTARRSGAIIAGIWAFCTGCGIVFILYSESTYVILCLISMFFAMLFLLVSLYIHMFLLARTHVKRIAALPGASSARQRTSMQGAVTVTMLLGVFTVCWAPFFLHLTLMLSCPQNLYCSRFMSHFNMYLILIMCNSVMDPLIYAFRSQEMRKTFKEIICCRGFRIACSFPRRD
T1 sequence (P41968 whole entry): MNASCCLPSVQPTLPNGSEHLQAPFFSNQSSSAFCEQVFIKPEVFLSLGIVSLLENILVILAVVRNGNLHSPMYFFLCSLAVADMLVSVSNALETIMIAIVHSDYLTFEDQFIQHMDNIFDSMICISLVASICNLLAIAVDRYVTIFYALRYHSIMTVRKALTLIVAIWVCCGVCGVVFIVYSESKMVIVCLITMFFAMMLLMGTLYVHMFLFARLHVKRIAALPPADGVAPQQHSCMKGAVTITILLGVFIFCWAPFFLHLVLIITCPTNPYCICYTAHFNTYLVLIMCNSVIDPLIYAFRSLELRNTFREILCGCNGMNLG
T3 sequence (Q01726 whole entry): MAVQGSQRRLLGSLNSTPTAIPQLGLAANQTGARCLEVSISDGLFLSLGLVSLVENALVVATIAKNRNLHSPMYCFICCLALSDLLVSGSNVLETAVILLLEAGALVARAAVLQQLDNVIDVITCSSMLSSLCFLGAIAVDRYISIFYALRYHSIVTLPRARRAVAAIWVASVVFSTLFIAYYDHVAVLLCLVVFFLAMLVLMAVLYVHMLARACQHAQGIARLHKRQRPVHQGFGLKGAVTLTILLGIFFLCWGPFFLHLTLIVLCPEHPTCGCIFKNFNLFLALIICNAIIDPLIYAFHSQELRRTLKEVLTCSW
T4 sequence (P32245 whole entry): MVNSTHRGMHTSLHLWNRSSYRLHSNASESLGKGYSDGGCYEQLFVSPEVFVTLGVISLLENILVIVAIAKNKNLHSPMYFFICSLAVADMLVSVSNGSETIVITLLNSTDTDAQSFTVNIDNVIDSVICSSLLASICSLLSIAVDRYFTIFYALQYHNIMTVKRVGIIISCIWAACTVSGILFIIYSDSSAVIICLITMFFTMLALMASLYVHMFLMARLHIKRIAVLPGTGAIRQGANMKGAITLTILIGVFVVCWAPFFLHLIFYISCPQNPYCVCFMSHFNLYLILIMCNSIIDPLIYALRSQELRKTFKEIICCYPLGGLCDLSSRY

SMILES	IC50 (human MC3R [1])	IC50 (human MC5R)	Emax (human MC1R [2])	EC50 (human MC1R [2])	EC50 (human MC3R [3])	IC50 (human MC4R [4])	IC50 (human MC1R [5])	EC50 (human MC4R [6])	selectivity for MC5R against MC1R (human MC5R; ratio of binding IC50, MC1R versus MC5R)	selectivity for MC5R against MC3R (human MC5R; ratio of binding IC50, MC3R versus MC5R)	selectivity for MC5R against MC4R (human MC5R; ratio of binding IC50, MC4R versus MC5R)	% Effect hMC1R cAMP at 10 µM (human MC1R [2]; % effect at 10 µM, compounds not reaching an upper plateau (#))
C[C@@H]1NC(=O)[C@H](CC(N)=O)NC(=O)[C@H](Cc2ccccc2)NC(=O)[C@H](Cc2ccccc2)NC(=O)[C@H](CCCNC(=N)N)NC(=O)[C@H](Cc2ccccc2)N(C)C(=O)[C@@H]2N[C@H](c3ccc(cc3)C(=O)NCCCC[C@@H](C(=O)N[C@@H](Cc3ccc(O)cc3)C(N)=O)NC1=O)[C@@H]1C(=O)N(C)C(=O)[C@@H]12 [F1-minor*, [ I-FRFFNAK ]Y]	80 ± 5 µM	16 ± 1 µM	36%	10 ± 1 µM	> 100 µM	57 ± 5 µM	65 ± 6 µM	> 100 µM	–	–	–	–
CN1C(=O)[C@@H]2N[C@H](c3ccc(cc3)C(=O)NCCCC[C@@H](C(=O)N[C@@H](Cc3ccc(O)cc3)C(N)=O)NC(=O)[C@H](CC(N)=O)NC(=O)[C@@H](Cc3ccccc3)NC(=O)[C@@H](Cc3ccccc3)NC(=O)[C@H](CCCNC(=N)N)NC(=O)[C@@H]1Cc1ccccc1)[C@@H]1C(=O)N(c3ccccc3)C(=O)[C@@H]12 [K1-major, [II-FRffNK ]Y]	19 ± 3 µM	4.1 µM	47%	4.1 ± 0.4 µM	> 100 µM	54 ± 4 µM	31 ± 3 µM	> 100 µM	7 fold	5 fold	13 fold	–
CN1C(=O)[C@H]2N[C@@H](c3ccc(cc3)C(=O)NCCCC[C@@H](C(N)=O)NC(=O)[C@H](Cc3ccccc3)NC(=O)[C@H](Cc3ccccc3)NC(=O)[C@H](CCCNC(=N)N)NC(=O)[C@@H]1Cc1ccccc1)[C@H]1C(=O)N(c3ccccc3)C(=O)[C@H]12 [N3-major*, [II-FRFFK ]]	> 100 µM	74 ± 4 µM	40%	22 ± 3 µM	> 100 µM	> 100 µM	> 100 µM	> 100 µM	–	–	–	–
C[C@@H]1NC(=O)[C@H](CC(N)=O)NC(=O)[C@@H](Cc2ccccc2)NC(=O)[C@@H](Cc2ccccc2)NC(=O)[C@H](CCCNC(=N)N)NC(=O)[C@H](Cc2ccccc2)N(C)C(=O)[C@@H]2N[C@H](c3ccc(cc3)C(=O)NCCCC[C@@H](C(=O)NCC(N)=O)NC(=O)[C@H](Cc3ccccc3)NC1=O)[C@@H]1C(=O)N(C)C(=O)[C@@H]12 [C4-major, [I-FRffNAFK ]G]	> 100 µM	36 ± 3 µM	56%	2.2 ± 1 µM	> 100 µM	72 ± 4 µM	88 ± 1 µM	> 100 µM	–	–	–	–
COc1cc(N2C(=O)[C@@H]3[C@H](C2=O)[C@H]2N[C@@H]3c3ccc(cc3)C(=O)NCCCC[C@@H](C(=O)NCC(N)=O)NC(=O)[C@H](CC(N)=O)NC(=O)[C@@H](Cc3ccccc3)NC(=O)[C@@H](Cc3ccccc3)NC(=O)[C@H](CCCNC(=N)N)NC(=O)[C@H](Cc3ccccc3)N(C)C2=O)cc(OC)c1OC [K5-major, [XI-FRffNK ]G]	> 10 µM	> 10 µM	–	> 10 µM	> 10 µM	> 10 µM	> 10 µM	> 10 µM	–	–	–	–
C[C@@H]1NC(=O)[C@H](CC(N)=O)NC(=O)[C@H](Cc2ccccc2)NC(=O)[C@H](Cc2ccccc2)NC(=O)[C@H](CCCNC(=N)N)NC(=O)[C@H](Cc2ccccc2)N(C)C(=O)[C@H]2N[C@@H](c3ccc(cc3)C(=O)NCCCC[C@@H](C(=O)NCC(N)=O)NC(=O)[C@H](Cc3ccccc3)NC1=O)[C@H]1C(=O)N(c3ccccc3)C(=O)[C@H]12 [B3-major*, [ II-FRFFNAFK]G]	> 10 µM	> 10 µM	–	> 10 µM	> 10 µM	> 10 µM	> 10 µM	> 10 µM	–	–	–	–
C[C@@H]1NC(=O)[C@H](CC(N)=O)NC(=O)[C@@H](Cc2ccccc2)NC(=O)[C@@H](Cc2ccccc2)NC(=O)[C@H](CCCNC(=N)N)NC(=O)[C@H](Cc2ccccc2)N(C)C(=O)[C@@H]2N[C@H](c3ccc(cc3)C(=O)NCCCC[C@@H](C(=O)N[C@@H](Cc3ccc(O)cc3)C(N)=O)NC1=O)[C@@H]1C(=O)N(C)C(=O)[C@@H]12 [G1-major, [I-FRffNAK ]Y]	> 10 µM	> 10 µM	38%	1.8 ± 0.3 µM	> 10 µM	> 10 µM	> 10 µM	> 10 µM	–	–	–	–
CN1C(=O)[C@@H]2[C@H](C1=O)[C@H]1N[C@@H]2C(=O)N(C)[C@@H](Cc2ccccc2)C(=O)N[C@@H](CCCNC(=N)N)C(=O)N[C@H](Cc2ccccc2)C(=O)N[C@H](Cc2ccccc2)C(=O)N[C@H](C(=O)N[C@@H](Cc2ccc(O)cc2)C(N)=O)CCCCNC(=O)c2ccc1cc2 [O1-minor, [I-FRffK ]Y]	> 10 µM	> 10 µM	–	> 10 µM	> 10 µM	> 10 µM	> 10 µM	> 10 µM	–	–	–	21%
CN1C(=O)[C@H]2N[C@@H](c3ccc(cc3)C(=O)NCCCC[C@@H](C(=O)NCC(N)=O)NC(=O)[C@H](CC(N)=O)NC(=O)[C@@H](Cc3ccccc3)NC(=O)[C@@H](Cc3ccccc3)NC(=O)[C@H](CCCNC(=N)N)NC(=O)[C@@H]1Cc1ccccc1)[C@H]1C(=O)N(c3ccccc3)C(=O)[C@H]12 [K3-minor, [II-FRffNK ]G]	> 10 µM	> 10 µM	–	> 10 µM	> 10 µM	> 10 µM	> 10 µM	> 10 µM	–	–	–	–
CN1C(=O)[C@@H]2[C@H](C1=O)[C@H]1N[C@@H]2C(=O)N(C)[C@@H](Cc2ccccc2)C(=O)N[C@@H](CCCNC(=N)N)C(=O)N[C@H](Cc2ccccc2)C(=O)N[C@H](Cc2ccccc2)C(=O)N[C@@H](CC(N)=O)C(=O)N[C@H](C(=O)NCC(N)=O)CCCCNC(=O)c2ccc1cc2 [K2-minor, [I-FRffNK ]G]	> 10 µM	> 10 µM	–	> 10 µM	> 10 µM	> 10 µM	> 10 µM	> 10 µM	–	–	–	–
CN1C(=O)[C@H]2N[C@@H](c3ccc(cc3)C(=O)NCCCC[C@@H](C(=O)N[C@@H](Cc3ccc(O)cc3)C(N)=O)NC(=O)[C@H](CC(N)=O)NC(=O)[C@H](Cc3ccccc3)NC(=O)[C@H](Cc3ccccc3)NC(=O)[C@H](CCCNC(=N)N)NC(=O)[C@@H]1Cc1ccccc1)[C@H]1C(=O)N(c3ccccc3)C(=O)[C@H]12 [J2-major, [ II-FRFFNK ]Y]	39 ± 2 µM	11 ± 1 µM	46%	6.4 ± 0.3 µM	> 100 µM	38 ± 6 µM	32 ± 1 µM	> 100 µM	–	–	–	–
C[C@@H]1NC(=O)[C@H](CC(N)=O)NC(=O)[C@H](Cc2ccccc2)NC(=O)[C@H](Cc2ccccc2)NC(=O)[C@H](CCCNC(=N)N)NC(=O)[C@H](Cc2ccccc2)N(C)C(=O)[C@H]2N[C@@H](c3ccc(cc3)C(=O)NCCCC[C@@H](C(=O)N[C@@H](Cc3ccc(O)cc3)C(N)=O)NC1=O)[C@H]1C(=O)N(C)C(=O)[C@H]12 [F1-major*, [ I-FRFFNAK ]Y]	> 100 µM	49 ± 2 µM	31%	14 ± 4 µM	> 100 µM	> 100 µM	> 100 µM	> 100 µM	–	–	–	–
